Key:
HBL-100 [1] = test: Anticancer activity against Homo sapiens (human) HBL100 cells after 72 hr by MTT assay; format: functional, cell-based; conditions: HBL-100, 72 h
HL-60 = test: Anticancer activity against Homo sapiens (human) HL60 cells after 48 hr by CC108 microcell counter analysis; format: functional, cell-based; conditions: HL-60, 48 h
Aspergillus niger = test: Antimicrobial activity against Aspergillus niger assessed as growth inhibition after 24 hr by cup plate method; format: functional, organism-based
Staphylococcus aureus = test: Antimicrobial activity against Staphylococcus aureus NCIM 2079 assessed as growth inhibition after 24 hr by serial double dilution method; format: functional, organism-based; conditions: NCIM 2079, 24 h
Vibrio cholerae = test: Antimicrobial activity against Vibrio cholerae assessed as growth inhibition after 24 hr by cup-plate method; format: functional, organism-based
Bacillus subtilis = test: Antimicrobial activity against Bacillus subtilis NCIM 2921 assessed as growth inhibition after 24 hr by serial double dilution method; format: functional, organism-based; conditions: NCIM 2921, 24 h
Candida albicans = test: Antimicrobial activity against Candida albicans assessed as growth inhibition after 24 hr by serial double dilution method; format: functional, organism-based
Pseudomonas aeruginosa = test: Antimicrobial activity against Pseudomonas aeruginosa NCIM 2967 assessed as growth inhibition after 24 hr by serial double dilution method; format: functional, organism-based; conditions: NCIM 2967, 24 h
Escherichia coli = test: Antimicrobial activity against Escherichia coli NCIM 2068 assessed as growth inhibition after 24 hr by serial double dilution method; format: functional, organism-based; conditions: NCIM 2068, 24 h
HBL-100 [2] = test: Ratio of compound IC50 to methotrexate IC50 for Homo sapiens (human) HBL100 cells after 72 hr by MTT assay; format: functional

SMILES	IC50 (HBL-100 [1]) [nM]	IC50 (HL-60) [nM]	IC50 (Aspergillus niger) [nM]	IC50 (Staphylococcus aureus) [nM]	IC50 (Vibrio cholerae) [nM]	IC50 (Bacillus subtilis; read-out: IC50) [nM]	IC50 (Candida albicans; read-out: IC50) [nM]	IC50 (Pseudomonas aeruginosa) [nM]	IC50 (Escherichia coli) [nM]	IC50 (Candida albicans) [nM]	Ratio IC50 (HBL-100 [2])	IC50 (Bacillus subtilis) [nM]
S=C(N/N=C/c1ccc(Cl)cc1)N1CCNCC1	1600	69000	2140	540	600	130	1850	600	1520			
Cc1ccc(/C=N/NC(=S)N2CCNCC2)cc1	800	70000	3790	1660	3570	1700	3720	1700	1740			
C/C(=N\NC(=S)N1CCNCC1)c1ccc(Cl)cc1	260		3320	1040	780	980	3370	710	880			
C/C(=N/NC(=S)N1CCNCC1)c1ccccc1	290		3760	2070	1170	1780	3750	2110	1760			
CN(Cc1cnc2nc(N)nc(N)c2n1)c1ccc(C(=O)N[C@@H](CCC(=O)O)C(=O)O)cc1 [METHOTREXATE]	40											
S=C(N/N=C/c1ccccc1)N1CCNCC1	2410	63000	2210	1360	2230	930	1850	1970	3910			
S=C(NN=C(c1ccccc1)c1ccccc1)N1CCNCC1	340		1620	1330	1380	1380	1470	1440	3030			
COc1ccc(/C=N/NC(=S)N2CCNCC2)cc1	1620		2090	790	1530	660	2150	1570	1590			
OC(Cn1cncn1)(Cn1cncn1)c1ccc(F)cc1F [FLUCONAZOLE]			> 10000							980		
Oc1ccc(/C=N/NC(=S)N2CCNCC2)cc1	180	50000	1970	1700	1660	1620	1940	1630	1640		4.5	
O=C(O)c1cn(C2CC2)c2cc(N3CCNCC3)c(F)cc2c1=O [CIPROFLOXACIN]				1200	200			50				4700
C/C(=N\NC(=S)N1CCNCC1)c1ccc(O)cc1	540	60000	3550	1580	1590	3490	2560	3510	3480			
C/C(=N\NC(=S)N1CCNCC1)c1cccc([N+](=O)[O-])c1	990	62000	1560	860	860	320	2000	600	570			

From ChEMBL document CHEMBL3045856, “Synthesis antimicrobial and anticancer activity of N-arylmethylidene-piperazine-1-carbothiohydrazide” (Med Chem Res, 2013)
